Results published in patent US8653071B2, “α4β2 neuronal nicotinic acetylcholine receptor ligands” (Suven Life Sciences Limited, priority 2009, dated 2014).

Tested on: Male Wister rats
Experiment: Object recognition task model
Format: in vivo, rat
Conditions: 1 mg/kg, p.o.
Experimental: Object Recognition Task Model
The cognition-enhancing properties of compounds of this invention were estimated using a model of animal cognition: the object recognition task model.
Male Wister rats (230-280 grams) obtained from N. I. N. (National Institute of Nutrition, Hyderabad, India) was used as experimental animals. Four animals were housed in each cage. […] Also the rats were habituated to individual arenas for 1 hour in the absence of any objects.
One group of 12 rats received vehicle (1 mL/Kg) orally and another set of animals received compound of the formula (I) either orally or i.p., before one hour of the familiar (T1) and choice trial (T2).
The experiment was carried out in a 50×50×50 cm open field made up of acrylic. In the familiarization phase, (T1), the rats were placed individually in the open field for 3 minutes, in which two identical objects (plastic bottles, 12.5 cm height×5.5 cm diameter) covered in yellow masking tape alone (a1 and a2) were positioned in two adjacent corners, 10 cm. from the walls. After 24 hours of the (T1) trial for long-term memory test, the same rats were placed in the same arena as they were placed in T1 trial. Choice phase (T2) rats were allowed to explore the open field for 3 minutes in presence of one familiar object (a3) and one novel object (b) (Amber color glass bottle, 12 cm high and 5 cm in diameter). Familiar objects presented similar textures, colors and sizes. During the T1 and T2 trial, explorations of each object (defined as sniffing, licking, chewing or having moving vibrissae whilst directing the nose towards the object at a distance of less than 1 cm) were recorded separately by stopwatch. Sitting on an object was not regarded as exploratory activity, however, it was rarely observed.
T1 is the total time spent exploring the familiar objects (a1+a2).
T2 is the total time spent exploring the familiar object and novel object (a3+b).
The object recognition test was performed as described by Ennaceur, A., Delacour, J., 1988, A new one-trial test for neurobiological studies of memory in rats—Behavioural data, Behav. Brain Res., 31, 47-59.

## CNCC1CC2CC2N1c1cccnc1.Cl (stereo not drawn) [Example 4, N-[2-(Pyridin-3-yl)-2-azabicyclo[3.1.0]hex-3-ylmethyl]methylamine hydrochloride]
  Inference: Active
Choice trial
  Exploration time mean ± S.E.M, Familiar object: 7.64 ± 1.052 s
  Exploration time mean ± S.E.M, Novel object: 14.21 ± 2.364 s
